Assay results: patent publication US11951094B2, “TLR2 modulator compounds, pharmaceutical compositions and uses thereof” (Axial Therapeutics, Inc., priority 2020, dated 2024)

What was measured:
Assay type in all cases: cell-based
TLR2 [1] = target: T1, TLR2 (Homo sapiens, UniProt O60603); experiment: TLR2 agonist screening assay, HEK-Blue TLR2 reporter cell line (NF-kB-driven SEAP, absorbance at 600 nm); set-up: host or cells: HEK-293 (HEK-Blue TLR2 reporter cell line); conditions: HEK-Blue TLR2 reporter cells, agonist mode
Outline: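 EC50 values come from dilution series of agonist on TLR2-transfected HEK-293 reporter cells carrying an NF-kB-SEAP construct. Cells sat overnight with compound in substrate-containing Detection medium at 1% DMSO, and secreted phosphatase activity was quantified as absorbance at 600 nm.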

TLR2 [2] = target: T1, TLR2; experiment: TLR2 in vitro functional assay, cytokine release from human monocytic cell line THP-1; conditions: THP-1 human monocytic cell line, average of all runs
Protocol: (§1) Cells of the immune system respond to TLR agonists in part by secreting cytokines. Functional assays for TLR2 agonists measure cytokine release from purified immune cells or immortalized cell lines derived from immune cells. Cytokine release is measured by standard ELISA approaches or multiplexed analysis using the Meso Scale Discovery (MSD) platform.
Following assay measurements utilizing either HEK-Blue detection or cytokine release, all data is analyzed with the GraphPad Prism8 statistical package to determine EC50, binding and activity metrics for the TLR2 modulators. […]
(§2) Numerous cell lines derived from various cell types can respond to TLR2 agonists with stereotyped cytokine and chemokine secretion. In particular, cell lines derived from macrophages respond robustly to TLR2 agonists by secreting a wide array of cytokines, including (but not limited to) TNF-alpha, IL-1, IL-10 and IL-12. The human monocytic cell line THP-1, the mouse macrophage line RAW-264.7, and the rat macrophage line NR8383 were used. For each assay, the respective cell lines were plated into 96-well plates overnight and then treated the following day with various TLR2-engaging compounds at varying concentrations. The next day, supernatants were collected and assayed by multiplex immunodetection for cytokines released (MSD detection kits for respective species).
(§3) Data provided in Table 5 is generated using protocols described in Example 45 and 46.

TLR2 [3] = target: T2, TLR2 (Mus musculus, UniProt Q9QUN7); experiment: TLR2 functional assay, cytokine release from RAW 264.7 mouse macrophage cell line; conditions: average of all runs
T2 construct: endogenous in cells; host or cells: RAW 264.7
Protocol: as §1
Purified primary human peripheral blood mononuclear cells or RAW 264.7 mouse macrophage cell line cells are plated at approximately 40,000 cells per well. Cells are treated with agonist compounds and assays 6-24 hours post-treatment for cytokines released into the cell culture media.
Following assay measurements utilizing either HEK-Blue detection or cytokine release, all data is analyzed with the GraphPad Prism8 statistical package to determine EC50, binding and activity metrics for the TLR2 modulators.
as §2, §3

T1 sequence (O60603 21-784): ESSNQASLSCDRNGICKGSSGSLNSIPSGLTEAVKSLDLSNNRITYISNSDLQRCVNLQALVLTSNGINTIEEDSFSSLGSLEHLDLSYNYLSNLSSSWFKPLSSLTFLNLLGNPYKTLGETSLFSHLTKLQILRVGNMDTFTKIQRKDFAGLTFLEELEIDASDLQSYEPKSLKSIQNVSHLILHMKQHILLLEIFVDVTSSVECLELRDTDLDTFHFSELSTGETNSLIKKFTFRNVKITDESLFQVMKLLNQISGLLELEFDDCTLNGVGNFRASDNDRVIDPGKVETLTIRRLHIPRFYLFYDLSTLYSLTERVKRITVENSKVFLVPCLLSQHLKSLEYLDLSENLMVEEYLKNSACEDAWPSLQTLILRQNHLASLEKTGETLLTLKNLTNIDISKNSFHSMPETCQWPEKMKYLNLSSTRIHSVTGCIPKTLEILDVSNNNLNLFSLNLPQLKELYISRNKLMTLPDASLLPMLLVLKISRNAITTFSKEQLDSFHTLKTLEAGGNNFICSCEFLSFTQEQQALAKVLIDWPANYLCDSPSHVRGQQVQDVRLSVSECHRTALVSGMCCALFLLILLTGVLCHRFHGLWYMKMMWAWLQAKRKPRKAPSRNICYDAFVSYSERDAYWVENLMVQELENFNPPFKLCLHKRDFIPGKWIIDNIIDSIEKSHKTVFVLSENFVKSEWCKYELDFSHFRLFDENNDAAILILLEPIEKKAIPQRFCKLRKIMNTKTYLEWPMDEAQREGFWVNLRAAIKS
T2 sequence (Q9QUN7 25-784): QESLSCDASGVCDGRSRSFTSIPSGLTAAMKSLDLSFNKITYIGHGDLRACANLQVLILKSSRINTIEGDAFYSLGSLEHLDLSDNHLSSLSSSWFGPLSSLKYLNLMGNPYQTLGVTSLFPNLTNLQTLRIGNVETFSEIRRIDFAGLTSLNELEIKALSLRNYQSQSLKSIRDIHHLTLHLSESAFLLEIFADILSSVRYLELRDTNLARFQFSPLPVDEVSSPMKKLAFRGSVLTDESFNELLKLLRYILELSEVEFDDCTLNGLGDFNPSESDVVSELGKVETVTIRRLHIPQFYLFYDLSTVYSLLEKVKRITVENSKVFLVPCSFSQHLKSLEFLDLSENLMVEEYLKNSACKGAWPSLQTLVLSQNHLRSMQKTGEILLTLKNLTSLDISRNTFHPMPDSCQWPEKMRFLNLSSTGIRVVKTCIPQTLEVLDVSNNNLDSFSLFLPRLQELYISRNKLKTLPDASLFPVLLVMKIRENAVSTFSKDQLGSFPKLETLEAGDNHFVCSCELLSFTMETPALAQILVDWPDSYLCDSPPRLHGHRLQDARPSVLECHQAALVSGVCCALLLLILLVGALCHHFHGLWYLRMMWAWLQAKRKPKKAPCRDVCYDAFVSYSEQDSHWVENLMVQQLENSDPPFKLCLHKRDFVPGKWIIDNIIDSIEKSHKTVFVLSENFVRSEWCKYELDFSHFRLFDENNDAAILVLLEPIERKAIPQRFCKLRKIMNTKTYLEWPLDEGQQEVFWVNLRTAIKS

Row | Structure (SMILES) | EC50 (TLR2 [1]; average of all runs (Table 3)) [nM] | EC50 (TLR2 [2]) [nM] | EC50 (TLR2 [1]; average of all runs (Table 4)) [nM] | EC50 (TLR2 [3]) [nM]
1 | CCCCCCCCCCCCCCNC(=O)C1CN(C(=O)c2ccc(C(=O)N3C[C@@H](C(=O)N[C@H]4C[C@@H]4c4ccccc4)[C@H](C(=O)N[C@H]4C[C@@H]4c4ccccc4)C3)cc2)CCN1 (mixture of isomers) [Compound 054, (3S,4S)—N3,N4-bis ((1S,2R)-2-phenylcyclopropyl)-1-(4-(3-(tetradecylcarbamoyl)piperazine-1-carbonyl)benzoyl) pyrrolidine-3,4-dicarboxamide] | 51 to 350 | 0.1 to 50 |  | 
2 | CCCCCCCCCCCCCCNC(=O)[C@@H]1CN(C(=O)c2ccc(C(=O)N3C[C@@H](C(=O)N[C@H]4C[C@@H]4c4ccccc4)[C@H](C(=O)N[C@H]4C[C@@H]4c4ccccc4)C3)cc2)C[C@H]1OC (relative stereo) [Compound 060, (3S,4S)-1-(4-((3S*,4R*)-3-methoxy-4-(tetradecylcarbamoyl)pyrrolidine-1-carbonyl)benzoyl)-N3,N4-bis((1S,2R)-2-phenylcyclopropyl)pyrrolidine-3,4-dicarboxamide] | 0.1 to 50 | 0.1 to 50 |  | 
3 | CCCCCCCNC(=O)[C@@H]1CN(C(=O)c2ccc(C(=O)N3C[C@@H](C(=O)N[C@H]4C[C@@H]4c4ccccc4)[C@H](C(=O)N[C@H]4C[C@@H]4c4ccccc4)C3)cc2)C[C@@H]1OCCCCCCC (relative stereo) [Compound 063, (3S,4S)-1-(4-((3R*,4R*)-3-(heptylcarbamoyl)-4-(heptyloxy)pyrrolidine-1-carbonyl)benzoyl)-N3,N4-bis((1S,2R)-2-phenylcyclopropyl)pyrrolidine-3,4-dicarboxamide] | 351 to 1000 | 0.1 to 50 |  | 
4 | CCCCCCCCCCCOC(=O)N[C@H]1CN(C(=O)c2ccc(C(=O)N3C[C@@H](C(=O)N[C@H]4C[C@@H]4c4ccccc4)[C@H](C(=O)N[C@H]4C[C@@H]4c4ccccc4)C3)cc2)C[C@@H]1OC [Compound 215, undecyl ((3S,4S)-1-(4-((3S,4S)-3,4-bis(((1S,2R)-2-phenylcyclopropyl)carbamoyl)pyrrolidine-1-carbonyl)benzoyl)-4-methoxypyrrolidin-3-yl)carbamate] |  |  | 51 to 350 | > 1000
5 | O=C(N[C@@H](CNC(=O)c1ccc(C(=O)N2C[C@@H](C(=O)N[C@H]3C[C@@H]3c3ccccc3)[C@H](C(=O)N[C@H]3C[C@@H]3c3ccccc3)C2)cc1)C(=O)N[C@H]1C[C@@H]1c1ccccc1)N[C@H]1C[C@@H]1c1ccccc1 [Compound 223, (3S,4S)-1-(4-(((S)-3-oxo-3-(((1S,2R)-2-phenylcyclopropyl)amino)-2-(3-((1S,2R)-2-phenylcyclopropyl)ureido)propyl)carbamoyl)benzoyl)-N3,N4-bis((1S,2R)-2-phenylcyclopropyl)pyrrolidine-3,4-dicarboxamide] |  |  | > 1000 | 351 to 1000
6 | CO[C@H]1CN(C(=O)c2ccc(C(=O)N3C[C@@H](C(=O)N[C@H]4C[C@@H]4c4ccccc4)[C@H](C(=O)N[C@H]4C[C@@H]4c4ccccc4)C3)cc2)C[C@@H]1NC(=O)N[C@H]1C[C@@H]1c1ccccc1 [Compound 224, (3S,4S)-1-(4-((3S,4S)-3-methoxy-4-(3-((1S,2R)-2-phenylcyclopropyl)ureido)pyrrolidine-1-carbonyl)benzoyl)-N3,N4-bis((1S,2R)-2-phenylcyclopropyl)pyrrolidine-3,4-dicarboxamide] |  |  | > 1000 | > 1000
7 | CCCCCCCCOC(=O)N[C@@H](CNC(=O)c1ccc(C(=O)N2C[C@@H](C(=O)N[C@H]3C[C@@H]3c3ccccc3)[C@H](C(=O)N[C@H]3C[C@@H]3c3ccccc3)C2)cc1)C(=O)NCCCCCC [Compound 228, octyl ((S)-3-(4-((3S,4S)-3,4-bis(((1S,2R)-2-phenylcyclopropyl)carbamoyl)pyrrolidine-1-carbonyl)benzamido)-1-(hexylamino)-1-oxopropan-2-yl)carbamate] |  |  | 0.1 to 50 | > 1000
8 | CCCCCCCCCOC(=O)N[C@@H](CNC(=O)c1ccc(C(=O)N2C[C@@H](C(=O)N[C@H]3C[C@@H]3c3ccccc3)[C@H](C(=O)N[C@H]3C[C@@H]3c3ccccc3)C2)cc1)C(=O)NCCCCCC [Compound 229, nonyl ((S)-3-(4-((3S,4S)-3,4-bis(((1S,2R)-2-phenylcyclopropyl)carbamoyl)pyrrolidine-1-carbonyl)benzamido)-1-(hexylamino)-1-oxopropan-2-yl)carbamate] |  |  | 0.1 to 50 | > 1000

The next lines start with the values.

Row | EC50 (TLR2 [1]; average of all runs (Table 3)) [nM] | EC50 (TLR2 [2]) [nM] | EC50 (TLR2 [1]; average of all runs (Table 4)) [nM] | EC50 (TLR2 [3]) [nM] | Structure (SMILES)
9 |  | 0.1 to 50 | 0.1 to 50 |  | CCCCCCCCCCCCCCNC(=O)[C@H]1CN(C(=O)c2ccc(C(=O)N3C[C@@H](C(=O)N[C@H]4C[C@@H]4c4ccccc4)[C@H](C(=O)N[C@H]4C[C@@H]4c4ccccc4)C3)cc2)C[C@H]1O (relative stereo) [Compound 104, (3S,4S)-1-(4-((3S*,4S*)-3-hydroxy-4-(tetradecylcarbamoyl)pyrrolidine-1-carbonyl)benzoyl)-N3,N4-bis((1S,2R)-2-phenylcyclopropyl)pyrrolidine-3,4-dicarboxamide]
10 |  |  | 0.1 to 50 | > 1000 | CCCCCCCCCCCCOC(=O)N[C@H]1CN(C(=O)c2ccc(C(=O)N3C[C@@H](C(=O)N[C@H]4C[C@@H]4c4ccccc4)[C@H](C(=O)N[C@H]4C[C@@H]4c4ccccc4)C3)cc2)C[C@@H]1OC [Compound 216, dodecyl ((3S,4S)-1-(4-((3S,4S)-3,4-bis(((1S,2R)-2-phenylcyclopropyl)carbamoyl)pyrrolidine-1-carbonyl)benzoyl)-4-methoxypyrrolidin-3-yl)carbamate]
11 |  |  | 0.1 to 50 | > 1000 | CCCCCCCCCCCCCOC(=O)N[C@H]1CN(C(=O)c2ccc(C(=O)N3C[C@@H](C(=O)N[C@H]4C[C@@H]4c4ccccc4)[C@H](C(=O)N[C@H]4C[C@@H]4c4ccccc4)C3)cc2)C[C@@H]1OC [Compound 217, tridecyl ((3S,4S)-1-(4-((3S,4S)-3,4-bis(((1S,2R)-2-phenylcyclopropyl)carbamoyl)pyrrolidine-1-carbonyl)benzoyl)-4-methoxypyrrolidin-3-yl)carbamate]
12 |  |  | 0.1 to 50 | 0.1 to 50 | CCCCCCCC(=O)N[C@@H](Cn1cc(-c2ccc(C(=O)N3C[C@@H](C(=O)N[C@H]4C[C@@H]4c4ccccc4)[C@H](C(=O)N[C@H]4C[C@@H]4c4ccccc4)C3)cc2)nn1)C(=O)NCCCCCC [Compound 219, (3S,4S)-1-(4-(1-((S)-3-(hexylamino)-2-octanamido-3-oxopropyl)-1H-1,2,3-triazol-4-yl)benzoyl)-N3,N4-bis((1S,2R)-2-phenylcyclopropyl)pyrrolidine-3,4-dicarboxamide]
13 |  |  | 0.1 to 50 | 0.1 to 50 | CCCCCCCNC(=O)N[C@@H](Cn1cc(-c2ccc(C(=O)N3C[C@@H](C(=O)N[C@H]4C[C@@H]4c4ccccc4)[C@H](C(=O)N[C@H]4C[C@@H]4c4ccccc4)C3)cc2)nn1)C(=O)NCCCCCC [Compound 220, (3S,4S)-1-(4-(1-((S)-2-(3-heptylureido)-3-(hexylamino)-3-oxopropyl)-1H-1,2,3-triazol-4-yl)benzoyl)-N3,N4-bis((1S,2R)-2-phenylcyclopropyl)pyrrolidine-3,4-dicarboxamide]
14 |  |  | 0.1 to 50 | 0.1 to 50 | CCCCCCCCNC(=O)N[C@@H](Cn1cc(-c2ccc(C(=O)N3C[C@@H](C(=O)N[C@H]4C[C@@H]4c4ccccc4)[C@H](C(=O)N[C@H]4C[C@@H]4c4ccccc4)C3)cc2)nn1)C(=O)NCCCCCC [Compound 221, (3S,4S)-1-(4-(1-((S)-3-(hexylamino)-2-(3-octylureido)-3-oxopropyl)-1H-1,2,3-triazol-4-yl)benzoyl)-N3,N4-bis((1S,2R)-2-phenylcyclopropyl)pyrrolidine-3,4-dicarboxamide]
15 |  |  | 0.1 to 50 | 51 to 350 | CCCCCCNC(=O)[C@H](CNC(=O)c1ccc(C(=O)N2C[C@@H](C(=O)N[C@H]3C[C@@H]3c3ccccc3)[C@H](C(=O)N[C@H]3C[C@@H]3c3ccccc3)C2)cc1)NC(=O)N[C@H]1C[C@@H]1c1ccccc1 [Compound 222, (3S,4S)-1-(4-(((S)-3-(hexylamino)-3-oxo-2-(3-((1S,2R)-2-phenylcyclopropyl)ureido)propyl)carbamoyl)benzoyl)-N3,N4-bis((1S,2R)-2-phenylcyclopropyl)pyrrolidine-3,4-dicarboxamide]
16 |  |  | 0.1 to 50 | > 1000 | CCCCCCCOC(=O)N[C@@H](CNC(=O)c1ccc(C(=O)N2C[C@@H](C(=O)N[C@H]3C[C@@H]3c3ccccc3)[C@H](C(=O)N[C@H]3C[C@@H]3c3ccccc3)C2)cc1)C(=O)NCCCCCC [Compound 227, heptyl ((S)-3-(4-((3S,4S)-3,4-bis(((1S,2R)-2-phenylcyclopropyl)carbamoyl)pyrrolidine-1-carbonyl)benzamido)-1-(hexylamino)-1-oxopropan-2-yl)carbamate]
